Assay results reported in patent US9023852B2, “1, 2, 4-thiadiazol-5-ylpiperazine derivatives useful in the treatment of neurodegenerative diseases” (Remynd NV, priority 2011, dated 2015).

Columns and labels:
[1] = Microsomal stability assay (intrinsic clearance), human liver microsomes; format: in vitro ADME; details: human in vitro microsomes, first value of Hum/Rat pair
Experimental: (§1) Microsomal Stability Testing—Assay Description
(§2) The microsomal stability assay measures the rate of disappearance of a test compound from an incubation containing human or animal liver microsomes and metabolic cofactors (typically NADPH). The assay is primarily used for ranking the relative CYP-mediated metabolism propensities of compounds within a chemical series and as a guide to selecting sufficiently stable compounds for pharmacokinetics and pharmacodynamics experiments. [In addition to CYPs, microsomally located enzymes which also make use of NADPH (such as […]) and those which require no cofactors (such as carboxylesterases) are active.]
(§3) Incubations are performed in 96-well deep-well plates with a final incubation volume of 600 μL. Incubations contain (finally) 1-2 μM test compound, 0.5 mg/mL liver microsomes (typically human, rat or mouse) and NADPH regenerating system. 50 μL aliquots are removed after 1, 3, 6, 9, 15, 25, 35 and 45 minutes and quenched in 150 μL acetonitrile containing internal standard. Samples are then cooled and centrifuged before analysis by LC-MS/MS.
(§4) Log peak area ratio (test compound peak area/internal standard peak area) is plotted against incubation time and a linear fit made to the data with emphasis upon the initial rate of compound disappearance. The slope of the fit is then used to calculate the intrinsic clearance: Clint(μL/min/mg)=−slope(min^−1)*1000/[protein concentration (mg/mL)]

[2] = Microsomal stability assay (intrinsic clearance), rat liver microsomes; format: in vitro ADME; details: rat in vitro microsomes, second value of Hum/Rat pair
Experimental: as §1, §2, §3, §4

M17—3TAU(P301L) cells = test: Neuroblastoma tauopathy model: inhibition of TAU-induced cytotoxicity (LDH); format: cell-based; details: Homo sapiens, 168 h; inhibition of TAU-induced toxicity (LDH), 7 days differentiation with retinoic acid
Procedure, shortened: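 BE-M17 neuroblastoma cells stably expressing human TAU-P301L, differentiated with RA (2.5 μM in added medium) for 7 days at 37 °C with compounds at a range of concentrations. Cytotoxicity as supernatant LDH over total LDH (Cytotox 96); EC50 from dose-dependent inhibition curve.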

Structure (SMILES)	microsomal CLint [1]	microsomal CLint [2]	EC50 (M17—3TAU(P301L) cells)
Cc1ccc(-c2nsc(N3CCN(Cc4ccc5c(c4)OCO5)CC3)n2)cc1 [Example 2, 1-Benzo[1,3]dioxol-5-ylmethyl-4-(3-p-tolyl-[1,2,4]thiadiazol-5-yl)-piperazine]	19 µL/min/mg	48 µL/min/mg	587 nM
Fc1ccc(Cc2nsc(N3CCN(Cc4ccc5c(c4)OCO5)CC3)n2)cc1 [reference compound]	39 µL/min/mg	482 µL/min/mg	
Fc1cccc(-c2nsc(N3CCN(CCc4ccc(Cl)cc4)CC3)n2)c1 [Example 88, 1-[2-(4-Chloro-phenyl)-ethyl]-4-[3-(3-fluoro-phenyl)-[1,2,4]thiadiazol-5-yl]-piperazine]	12 µL/min/mg	23 µL/min/mg	121 nM
O=S(=O)(c1ccc(OC(F)(F)F)cc1)N1CCN(c2nc(Cc3ccc(F)cc3)ns2)CC1 [reference compound]	46 µL/min/mg	103 µL/min/mg	
Fc1ccc(-c2nsc(N3CCN(CCC4CCCCC4)CC3)n2)cc1F [Example 153, 1-(2-Cyclohexyl-ethyl)-4-[3-(3,4-difluoro-phenyl)-[1,2,4]thiadiazol-5-yl]-piperazine]			5.9 nM
COc1cccc(CCN2CCN(c3nc(-c4ccc(Cl)cc4)ns3)CC2)c1 [Example 14, 1-[3-(4-Chloro-phenyl)-[1,2,4]thiadiazol-5-yl]-4-[2-(3-methoxy-phenyl)-ethyl]-piperazine]			4.8 nM
CC(C)Oc1cccc(CCN2CCN(c3nc(-c4ccc(Cl)cc4)ns3)CC2)c1 [Example 51, 1-[3-(4-Chloro-phenyl)-[1,2,4]thiadiazol-5-yl]-4-[2-(3-isopropoxy-phenyl)-ethyl]-piperazine]			152 nM
COc1ccc(C(=O)CN2CCN(c3nc(-c4ccc(Cl)cc4)ns3)CC2)cc1 [Example 53, 2-{4-[3-(4-Chloro-phenyl)-[1,2,4]thiadiazol-5-yl]-piperazin-1-yl}-1-(4-methoxy-phenyl)-ethanone]			12.6 nM
COc1ccc(CCN2CCN(c3nc(-c4ccc(OC(F)(F)F)cc4)ns3)CC2)cc1 [Example 37, 1-[2-(4-Methoxy-phenyl)-ethyl]-4-[3-(4-trifluoromethoxy-phenyl)-[1,2,4]thiadiazol-5-yl]-piperazine]			2.9 nM
Clc1ccc(CCN2CCN(c3nc(-c4cncc(Cl)c4)ns3)CC2)cc1 [Example 132, 1-[2-(4-Chloro-phenyl)-ethyl]-4-[3-(5-chloro-pyridin-3-yl)-[1,2,4]thiadiazol-5-yl]-piperazine]			3.3 nM
COc1ccc(CCN2CCN(c3nc(-c4ccc(F)cc4OC)ns3)CC2)cc1 [Example 67, 1-[3-(4-Fluoro-2-methoxy-phenyl)-[1,2,4]thiadiazol-5-yl]-4-[2-(4-methoxy-phenyl)-ethyl]-piperazine]			1 nM
Cc1cccc(CCN2CCN(c3nc(-c4ccc(Cl)cc4)ns3)CC2)c1 [Example 23, 1-[3-(4-Chloro-phenyl)-[1,2,4]thiadiazol-5-yl]-4-(2-m-tolyl-ethyl)-piperazine]			1.9 nM
Cc1ccc(-c2nsc(N3CCN(CCCc4ccccc4)CC3)n2)cc1 [Example 155, 5-(4-(3-phenylpropyl)piperazin-1-yl)-3-(p-tolyl)-1,2,4-thiadiazole]			976 nM
COc1ccc(CCN2CCN(c3nc(-c4ccc(C#N)cc4)ns3)CC2)cn1 [Example 114, 4-(5-{4-[2-(6-Methoxy-pyridin-3-yl)-ethyl]-piperazin-1-yl}-[1,2,4]thiadiazol-3-yl)-benzonitrile]			7.9 nM
Fc1ccc(-c2nsc(N3CCN(CCc4cccc(C(F)(F)F)c4)CC3)n2)cc1F [Example 158, 3-(3,4-difluorophenyl)-5-(4-(3-(trifluoromethyl)phenethyl)piperazin-1-yl)-1,2,4-thiadiazole]			998 nM
Cc1ccc(-c2nsc(N3CCN(Cc4ccccc4C)CC3)n2)cc1 [Example 6, 1-(2-Methyl-benzyl)-4-(3-p-tolyl-[1,2,4]thiadiazol-5-yl)-piperazine]			278 nM
Cc1ccc(-c2nsc(N3CCN(CCc4ccc(Cl)c(Cl)c4)CC3)n2)cc1 [Example 5, 1-[2-(3,4-Dichloro-phenyl)-ethyl]-4-(3-p-tolyl-[1,2,4]thiadiazol-5-yl)-piperazine]			396 nM
COc1ccc(CCN2CCN(c3nc(-c4ccc(C(F)(F)F)nc4)ns3)CC2)cc1 [Example 42, 1-[2-(4-Methoxy-phenyl)-ethyl]-4-[3-(6-trifluoromethyl-pyridin-3-yl)-[1,2,4]thiadiazol-5-yl]-piperazine]			0.3 nM

Structure (SMILES)	microsomal CLint [1]	microsomal CLint [2]	EC50 (M17—3TAU(P301L) cells)
Fc1ccc(CCN2CCN(c3nc(-c4ccc(F)c(F)c4)ns3)CC2)cc1F [Example 136, 1-[2-(3,4-Difluoro-phenyl)-ethyl]-4-[3-(3,4-difluoro-phenyl)-[1,2,4]thiadiazol-5-yl]-piperazine]			6.2 nM
Clc1cccc(-c2nsc(N3CCN(CCc4ccccc4)CC3)n2)c1 [Example 82, 1-[3-(3-Chloro-phenyl)-[1,2,4]thiadiazol-5-yl]-4-phenethyl-piperazine]			4 nM
Clc1ccc(CCN2CCN(c3nc(-c4ccnc(Cl)c4)ns3)CC2)cc1 [Example 169, 5-(4-(4-chlorophenethyl)piperazin-1-yl)-3-(2-chloropyridin-4-yl)-1,2,4-thiadiazole]			10.4 nM
COc1cc(CCN2CCN(c3nc(-c4cncc(Cl)c4)ns3)CC2)ccn1 [Example 133, 1-[3-(5-Chloro-pyridin-3-yl)-[1,2,4]thiadiazol-5-yl]-4-[2-(2-methoxy-pyridin-4-yl)-ethyl]-piperazine]			1.4 nM
N#Cc1ccc(-c2nsc(N3CCN(CCc4ccccc4)CC3)n2)cc1 [Example 108, 4-[5-(4-Phenethyl-piperazin-1-yl)-[1,2,4]thiadiazol-3-yl]-benzonitrile]			7.9 nM
COc1ccc(CCN2CCN(c3nc(-c4ccc(C)cc4)ns3)CC2)cc1 [Example 19, 1-[2-(4-Methoxy-phenyl)-ethyl]-4-(3-p-tolyl-[1,2,4]thiadiazol-5-yl)-piperazine]			2 nM
COc1ccc(CCCN2CCN(c3nc(-c4ccc(Cl)cc4)ns3)CC2)cc1 [Example 52, 1-[3-(4-Chloro-phenyl)-[1,2,4]thiadiazol-5-yl]-4-[3-(4-methoxy-phenyl)-propyl]-piperazine]			327 nM
Clc1ccnc(-c2nsc(N3CCN(CCc4ccccc4)CC3)n2)c1 [Example 120, 1-[3-(4-Chloro-pyridin-2-yl)-[1,2,4]thiadiazol-5-yl]-4-phenethyl-piperazine]			16.1 nM
COc1cc(CCN2CCN(c3nc(-c4ccc(Cl)cc4)ns3)CC2)ccn1 [Example 75, 1-[3-(4-Chloro-phenyl)-[1,2,4]thiadiazol-5-yl]-4-[2-(2-methoxy-pyridin-4-yl)-ethyl]-piperazine]			13.4 nM
Fc1ccc(CCN2CCN(c3nc(-c4ccc(Cl)cc4)ns3)CC2)cc1F [Example 134, 1-[3-(4-Chloro-phenyl)-[1,2,4]thiadiazol-5-yl]-4-[2-(3,4-difluoro-phenyl)-ethyl]-piperazine]			37.8 nM
COc1cc(CCN2CCN(c3nc(-c4cccc(F)c4)ns3)CC2)ccn1 [Example 90, 1-[3-(3-Fluoro-phenyl)-[1,2,4]thiadiazol-5-yl]-4-[2-(2-methoxy-pyridin-4-yl)-ethyl]-piperazine]			6.8 nM
Fc1ccc(CCN2CCN(c3nc(-c4cncc(Cl)c4)ns3)CC2)cc1 [Example 131, 1-[3-(5-Chloro-pyridin-3-yl)-[1,2,4]thiadiazol-5-yl]-4-[2-(4-fluoro-phenyl)-ethyl]-piperazine]			1.3 nM
N#Cc1ccc(-c2nsc(N3CCN(CCc4ccc(F)cc4)CC3)n2)cc1 [Example 110, 4-(5-{4-[2-(4-Fluoro-phenyl)-ethyl]piperazin-1-yl}-[1,2,4]thiadiazol-3-yl)-benzonitrile]			17.8 nM
COc1cccc(CCN2CCN(c3nc(-c4ccc(C(F)(F)F)nc4)ns3)CC2)c1 [Example 30, 1-[2-(3-Methoxy-phenyl)-ethyl]-4-[3-(6-trifluoromethyl-pyridin-3-yl)-[1,2,4]thiadiazol-5-yl]-piperazine]			147 nM
Cc1ncc(-c2nsc(N3CCN(CCc4ccc(Cl)cc4)CC3)n2)cn1 [Example 180, 5-(4-(4-chlorophenethyl)piperazin-1-yl)-3-(2-methylpyrimidin-5-yl)-1,2,4-thiadiazole]			129 nM
COc1cccc(C(F)CN2CCN(c3nc(-c4ccc(Cl)cc4)ns3)CC2)c1 (stereo not drawn) [Example 65, 1-[3-(4-Chloro-phenyl)-[1,2,4]thiadiazol-5-yl]-4-[2-fluoro-2-(3-methoxy-phenyl)-ethyl]-piperazine]			59.9 nM
COc1cc(CCN2CCN(c3nc(-c4ccnc(Cl)c4)ns3)CC2)ccn1 [Example 168, 3-(2-chloropyridin-4-yl)-5-(4-(2-(2-methoxypyridin-4-yl)ethyl)piperazin-1-yl)-1,2,4-thiadiazole]			1.5 nM
COc1cc(CCN2CCN(c3nc(-c4ccnc(C)c4)ns3)CC2)ccn1 [Example 172, 5-(4-(2-(2-methoxypyridin-4-yl)ethyl)piperazin-1-yl)-3-(2-methylpyridin-4-yl)-1,2,4-thiadiazole]			14.4 nM
